# Measured values taken from the kinase profiling compilation of Christmann-Franck et al. (2016).
# Key:
# Assay in all cases: radiometric filter-binding kinase assay
# [1] = test system: AKT1 (human), P31749 [S473D]
# MKNK2 (human) = MKNK2 (human) (UniProt Q9HBH9)
# PIM1 (human) = PIM1 (human) (UniProt P11309)
# DAPK1 (human) = DAPK1 (human) (UniProt P53355)
# PIM2 (human) = PIM2 (human) (UniProt Q9P1W9)
# MAPK11 (human) = MAPK11 (human) (UniProt Q15759)
# DYRK3 (human) = DYRK3 (human) (UniProt O43781)
# Sequence of DYRK3 (human) (O43781 whole entry, looked up): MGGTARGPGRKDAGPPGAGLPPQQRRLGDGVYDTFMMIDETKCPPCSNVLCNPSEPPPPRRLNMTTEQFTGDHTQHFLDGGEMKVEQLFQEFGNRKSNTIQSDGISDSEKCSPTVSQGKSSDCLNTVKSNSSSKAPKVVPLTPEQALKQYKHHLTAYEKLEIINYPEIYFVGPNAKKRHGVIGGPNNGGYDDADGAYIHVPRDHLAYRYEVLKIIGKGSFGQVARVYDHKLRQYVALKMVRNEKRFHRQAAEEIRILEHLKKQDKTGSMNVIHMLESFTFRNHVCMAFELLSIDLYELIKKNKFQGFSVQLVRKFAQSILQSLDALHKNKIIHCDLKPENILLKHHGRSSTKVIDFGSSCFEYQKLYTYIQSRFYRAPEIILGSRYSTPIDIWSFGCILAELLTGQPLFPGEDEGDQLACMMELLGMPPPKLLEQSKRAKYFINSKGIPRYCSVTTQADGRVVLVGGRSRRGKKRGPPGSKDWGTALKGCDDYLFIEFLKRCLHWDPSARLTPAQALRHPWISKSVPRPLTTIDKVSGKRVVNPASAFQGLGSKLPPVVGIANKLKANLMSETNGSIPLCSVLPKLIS
# CLK2 (human) = CLK2 (human) (UniProt P49760)
# IKBKB (human) = IKBKB (human) (UniProt O14920)
# MAPKAPK5 (human) = MAPKAPK5 (human) (UniProt Q8IW41)
# Sequence of MAPKAPK5 (human) (Q8IW41 whole entry, looked up): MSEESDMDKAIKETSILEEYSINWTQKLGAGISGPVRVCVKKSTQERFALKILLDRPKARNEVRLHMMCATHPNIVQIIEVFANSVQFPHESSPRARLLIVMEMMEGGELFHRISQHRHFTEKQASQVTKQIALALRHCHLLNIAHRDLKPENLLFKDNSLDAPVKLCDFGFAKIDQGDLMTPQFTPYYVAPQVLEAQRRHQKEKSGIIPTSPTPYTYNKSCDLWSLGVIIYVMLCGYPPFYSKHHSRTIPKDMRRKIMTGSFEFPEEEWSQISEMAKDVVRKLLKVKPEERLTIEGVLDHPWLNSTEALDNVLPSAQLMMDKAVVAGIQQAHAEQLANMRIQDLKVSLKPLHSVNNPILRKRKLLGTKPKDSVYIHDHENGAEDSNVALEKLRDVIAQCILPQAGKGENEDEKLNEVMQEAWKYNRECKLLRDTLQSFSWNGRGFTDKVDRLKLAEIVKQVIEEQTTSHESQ
# MAP3K7 TAB1 (human) = MAP3K7 TAB1 (human) (UniProt Q15750+O43318)
# RPS6KA3 KD1 KD2 (human) = RPS6KA3 KD1 KD2 (human) (UniProt P51812)
# [2] = test system: RPS6KB1 (human), P23443 [T412E]
# MAPKAPK3 (human) = MAPKAPK3 (human) (UniProt Q16644)
# Sequence of MAPKAPK3 (human) (Q16644 whole entry, looked up): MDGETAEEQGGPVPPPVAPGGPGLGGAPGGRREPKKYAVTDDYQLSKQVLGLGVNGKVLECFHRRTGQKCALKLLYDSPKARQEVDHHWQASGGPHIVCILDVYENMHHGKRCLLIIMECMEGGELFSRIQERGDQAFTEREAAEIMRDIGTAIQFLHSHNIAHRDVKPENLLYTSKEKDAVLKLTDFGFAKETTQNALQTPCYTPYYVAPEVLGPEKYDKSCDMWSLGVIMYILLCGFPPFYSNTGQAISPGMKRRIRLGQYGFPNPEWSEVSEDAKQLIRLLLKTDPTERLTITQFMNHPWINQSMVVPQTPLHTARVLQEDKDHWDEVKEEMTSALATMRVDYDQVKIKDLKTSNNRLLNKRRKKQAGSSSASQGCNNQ
# CSNK2A1 (human) = CSNK2A1 (human) (UniProt P68400)
# Sequence of CSNK2A1 (human) (P68400 whole entry, looked up): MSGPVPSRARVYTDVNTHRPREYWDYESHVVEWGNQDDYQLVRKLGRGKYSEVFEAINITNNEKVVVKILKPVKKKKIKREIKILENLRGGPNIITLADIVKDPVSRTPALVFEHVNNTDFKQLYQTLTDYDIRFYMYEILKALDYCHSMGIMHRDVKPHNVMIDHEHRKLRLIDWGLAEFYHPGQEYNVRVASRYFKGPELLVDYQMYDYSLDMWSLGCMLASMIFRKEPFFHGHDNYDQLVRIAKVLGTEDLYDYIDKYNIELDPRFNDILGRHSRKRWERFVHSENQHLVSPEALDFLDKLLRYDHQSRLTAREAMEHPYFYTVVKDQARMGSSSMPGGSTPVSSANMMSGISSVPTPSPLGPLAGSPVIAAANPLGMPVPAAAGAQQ
# TBK1 (human) = TBK1 (human) (UniProt Q9UHD2)
# IRAK4 (human) = IRAK4 (human) (UniProt Q9NWZ3)
# Sequence of IRAK4 (human) (Q9NWZ3 whole entry, looked up): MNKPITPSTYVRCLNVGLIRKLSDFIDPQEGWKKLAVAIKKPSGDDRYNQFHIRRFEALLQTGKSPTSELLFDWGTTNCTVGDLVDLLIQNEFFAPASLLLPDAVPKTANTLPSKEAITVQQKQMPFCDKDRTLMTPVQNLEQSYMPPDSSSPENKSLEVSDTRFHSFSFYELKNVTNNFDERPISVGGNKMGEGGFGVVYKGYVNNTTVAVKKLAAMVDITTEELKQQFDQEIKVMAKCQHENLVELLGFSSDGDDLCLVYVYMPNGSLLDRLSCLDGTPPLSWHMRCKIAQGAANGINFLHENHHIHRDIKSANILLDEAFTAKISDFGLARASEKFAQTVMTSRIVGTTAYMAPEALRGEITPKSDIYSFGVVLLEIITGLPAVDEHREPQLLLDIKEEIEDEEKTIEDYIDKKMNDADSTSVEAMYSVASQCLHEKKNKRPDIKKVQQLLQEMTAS
# DYRK1A (human) = DYRK1A (human) (UniProt Q13627)
# RPS6KA1 KD1 KD2 (human) = RPS6KA1 KD1 KD2 (human) (UniProt Q15418)
# EPHB3 (human) = EPHB3 (human) (UniProt P54753)
# ROCK2 (rat) = settings: accession and sequence are those of the human protein
# MAP3K11 (human) = MAP3K11 (human) (UniProt Q16584)
# MAPK8 (human) = MAPK8 (human) (UniProt P45983)
# [3] = test system: SGK1 (human), O00141 [S422D]
# MAPK3 (human) = MAPK3 (human) (UniProt P27361)
# Sequence of MAPK3 (human) (P27361 whole entry, looked up): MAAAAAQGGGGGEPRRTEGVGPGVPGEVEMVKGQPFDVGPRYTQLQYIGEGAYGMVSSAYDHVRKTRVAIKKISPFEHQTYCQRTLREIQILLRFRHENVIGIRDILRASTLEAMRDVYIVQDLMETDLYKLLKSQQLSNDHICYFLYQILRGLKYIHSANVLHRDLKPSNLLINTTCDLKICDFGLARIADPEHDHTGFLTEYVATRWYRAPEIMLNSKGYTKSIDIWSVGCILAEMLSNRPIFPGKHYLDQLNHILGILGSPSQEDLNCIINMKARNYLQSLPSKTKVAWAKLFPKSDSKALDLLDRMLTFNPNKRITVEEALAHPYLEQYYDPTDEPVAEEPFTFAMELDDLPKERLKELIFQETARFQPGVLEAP
# MAPK12 (human) = MAPK12 (human) (UniProt P53778)
# MAP2K6 (human) = MAP2K6 (human) (UniProt P52564)
# PIM3 (human) = PIM3 (human) (UniProt Q86V86)
# PAK4 (human) = PAK4 (human) (UniProt O96013)
# STK3 (human) = STK3 (human) (UniProt Q13188)
# MAPK14 (human) = MAPK14 (human) (UniProt Q16539)
# IKBKE (human) = IKBKE (human) (UniProt Q14164)
# PLK1 (human) = PLK1 (human) (UniProt P53350)
# Sequence of PLK1 (human) (P53350 whole entry, looked up): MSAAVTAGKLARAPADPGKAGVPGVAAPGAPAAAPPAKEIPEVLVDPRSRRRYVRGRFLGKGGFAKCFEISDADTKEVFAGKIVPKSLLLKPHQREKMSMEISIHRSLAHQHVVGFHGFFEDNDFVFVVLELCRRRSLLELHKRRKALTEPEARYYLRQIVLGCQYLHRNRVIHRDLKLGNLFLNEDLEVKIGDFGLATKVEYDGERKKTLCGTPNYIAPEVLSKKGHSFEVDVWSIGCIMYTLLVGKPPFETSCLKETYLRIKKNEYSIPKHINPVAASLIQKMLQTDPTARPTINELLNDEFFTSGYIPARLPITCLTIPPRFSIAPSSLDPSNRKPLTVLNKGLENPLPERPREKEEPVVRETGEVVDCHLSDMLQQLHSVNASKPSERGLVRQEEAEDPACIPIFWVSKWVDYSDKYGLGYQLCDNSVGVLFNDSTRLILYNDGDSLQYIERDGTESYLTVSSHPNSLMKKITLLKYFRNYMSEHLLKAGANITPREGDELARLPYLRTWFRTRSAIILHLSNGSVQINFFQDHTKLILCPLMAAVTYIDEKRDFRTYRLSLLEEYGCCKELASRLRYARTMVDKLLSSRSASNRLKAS
# NTRK1 (human) = NTRK1 (human) (UniProt P04629)
# Sequence of NTRK1 (human) (P04629 whole entry, looked up): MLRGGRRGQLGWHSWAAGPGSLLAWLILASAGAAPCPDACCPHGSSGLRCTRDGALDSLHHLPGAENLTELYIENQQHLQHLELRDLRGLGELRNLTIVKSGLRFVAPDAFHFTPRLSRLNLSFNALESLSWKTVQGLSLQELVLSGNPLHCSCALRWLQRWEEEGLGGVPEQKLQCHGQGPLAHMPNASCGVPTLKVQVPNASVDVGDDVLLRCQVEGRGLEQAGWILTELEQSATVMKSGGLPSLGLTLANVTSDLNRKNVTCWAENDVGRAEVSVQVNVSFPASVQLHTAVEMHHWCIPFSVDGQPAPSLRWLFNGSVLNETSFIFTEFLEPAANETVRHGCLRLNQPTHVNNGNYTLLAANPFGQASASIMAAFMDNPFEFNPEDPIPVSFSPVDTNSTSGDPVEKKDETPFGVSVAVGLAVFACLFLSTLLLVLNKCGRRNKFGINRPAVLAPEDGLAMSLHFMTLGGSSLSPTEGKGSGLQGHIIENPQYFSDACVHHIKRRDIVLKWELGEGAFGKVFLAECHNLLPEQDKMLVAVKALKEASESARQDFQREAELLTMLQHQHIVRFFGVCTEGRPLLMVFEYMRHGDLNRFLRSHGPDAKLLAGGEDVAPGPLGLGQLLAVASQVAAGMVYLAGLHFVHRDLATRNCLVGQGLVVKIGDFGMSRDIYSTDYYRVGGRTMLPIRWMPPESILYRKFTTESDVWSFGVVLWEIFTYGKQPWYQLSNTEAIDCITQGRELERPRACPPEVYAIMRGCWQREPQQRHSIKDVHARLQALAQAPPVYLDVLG
# BRSK2 (human) = BRSK2 (human) (UniProt Q8IWQ3)
# Sequence of PIM1 (human) (P11309 whole entry, looked up): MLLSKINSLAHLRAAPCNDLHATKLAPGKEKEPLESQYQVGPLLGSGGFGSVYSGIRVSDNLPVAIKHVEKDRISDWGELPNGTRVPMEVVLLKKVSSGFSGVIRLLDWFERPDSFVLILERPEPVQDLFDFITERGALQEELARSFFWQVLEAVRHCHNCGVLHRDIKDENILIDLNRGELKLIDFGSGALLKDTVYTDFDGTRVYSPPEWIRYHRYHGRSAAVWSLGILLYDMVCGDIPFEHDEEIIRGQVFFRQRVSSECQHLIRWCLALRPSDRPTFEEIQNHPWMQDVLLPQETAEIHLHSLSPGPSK
# Sequence of AKT1 (human), P31749 [S473D] (P31749 whole entry S473D, looked up): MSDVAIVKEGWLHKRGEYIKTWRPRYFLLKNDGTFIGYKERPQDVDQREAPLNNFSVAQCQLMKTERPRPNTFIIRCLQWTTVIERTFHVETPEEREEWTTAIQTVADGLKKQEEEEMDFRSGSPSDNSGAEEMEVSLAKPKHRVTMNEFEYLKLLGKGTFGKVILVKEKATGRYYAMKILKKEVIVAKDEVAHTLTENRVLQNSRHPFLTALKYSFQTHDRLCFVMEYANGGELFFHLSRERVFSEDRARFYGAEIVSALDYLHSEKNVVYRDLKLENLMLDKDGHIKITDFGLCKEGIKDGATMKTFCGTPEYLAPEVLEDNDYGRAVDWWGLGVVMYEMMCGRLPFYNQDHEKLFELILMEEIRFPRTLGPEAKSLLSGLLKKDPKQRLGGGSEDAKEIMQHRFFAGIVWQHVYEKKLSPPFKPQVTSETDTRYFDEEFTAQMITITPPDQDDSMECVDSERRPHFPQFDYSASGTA
compound,measurement,setting,value
CCCC(CCC)C(=O)O,residual activity,[1]; compound 1.0 µM,99%
same,residual activity,[1]; compound 10.0 µM,99%
same,residual activity,[1]; compound 50.0 µM,102%
same,residual activity,MKNK2 (human); compound 1.0 µM,90%
same,residual activity,MKNK2 (human); compound 10.0 µM,106%
same,residual activity,MKNK2 (human); compound 50.0 µM,126%
same,residual activity,PIM1 (human); compound 10.0 µM,98%
same,residual activity,PIM1 (human); compound 50.0 µM,100%
same,residual activity,DAPK1 (human); compound 10.0 µM,97%
same,residual activity,DAPK1 (human); compound 50.0 µM,94%
same,residual activity,PIM2 (human); compound 1.0 µM,83%
same,residual activity,PIM2 (human); compound 10.0 µM,104%
same,residual activity,PIM2 (human); compound 50.0 µM,98%
same,residual activity,MAPK11 (human); compound 1.0 µM,82%
same,residual activity,MAPK11 (human); compound 10.0 µM,91%
same,residual activity,MAPK11 (human); compound 50.0 µM,106%
same,residual activity,DYRK3 (human); compound 10.0 µM,87%
same,residual activity,DYRK3 (human); compound 50.0 µM,91%
same,residual activity,CLK2 (human); compound 10.0 µM,90%
same,residual activity,CLK2 (human); compound 50.0 µM,86%
same,residual activity,IKBKB (human); compound 1.0 µM,86%
same,residual activity,IKBKB (human); compound 10.0 µM,79%
same,residual activity,IKBKB (human); compound 50.0 µM,88%
same,residual activity,MAPKAPK5 (human); compound 1.0 µM,92%
same,residual activity,MAPKAPK5 (human); compound 10.0 µM,91%
same,residual activity,MAPKAPK5 (human); compound 50.0 µM,88%
same,residual activity,MAP3K7 TAB1 (human); compound 10.0 µM,92%
same,residual activity,RPS6KA3 KD1 KD2 (human); compound 1.0 µM,94%
same,residual activity,RPS6KA3 KD1 KD2 (human); compound 10.0 µM,94%
same,residual activity,RPS6KA3 KD1 KD2 (human); compound 50.0 µM,93%
same,residual activity,[2]; compound 1.0 µM,81%
same,residual activity,[2]; compound 10.0 µM,84%
same,residual activity,[2]; compound 50.0 µM,91%
same,residual activity,MAPKAPK3 (human); compound 1.0 µM,90%
same,residual activity,MAPKAPK3 (human); compound 10.0 µM,93%
same,residual activity,MAPKAPK3 (human); compound 50.0 µM,97%
same,residual activity,CSNK2A1 (human); compound 10.0 µM,86%
same,residual activity,CSNK2A1 (human); compound 50.0 µM,86%
same,residual activity,TBK1 (human); compound 10.0 µM,99%
same,residual activity,TBK1 (human); compound 50.0 µM,97%
same,residual activity,IRAK4 (human); compound 10.0 µM,94%
same,residual activity,IRAK4 (human); compound 50.0 µM,99%
same,residual activity,DYRK1A (human); compound 1.0 µM,98%
same,residual activity,DYRK1A (human); compound 50.0 µM,89%
same,residual activity,RPS6KA1 KD1 KD2 (human); compound 1.0 µM,99%
same,residual activity,RPS6KA1 KD1 KD2 (human); compound 10.0 µM,100%
same,residual activity,RPS6KA1 KD1 KD2 (human); compound 50.0 µM,96%
same,residual activity,EPHB3 (human); compound 50.0 µM,96%
same,residual activity,ROCK2 (rat); compound 1.0 µM,84%
same,residual activity,ROCK2 (rat); compound 10.0 µM,97%
same,residual activity,ROCK2 (rat); compound 50.0 µM,89%
same,residual activity,MAP3K11 (human); compound 10.0 µM,104%
same,residual activity,MAP3K11 (human); compound 50.0 µM,96%
same,residual activity,MAPK8 (human); compound 1.0 µM,86%
same,residual activity,MAPK8 (human); compound 10.0 µM,95%
same,residual activity,MAPK8 (human); compound 50.0 µM,92%
same,residual activity,[3]; compound 1.0 µM,89%
same,residual activity,[3]; compound 10.0 µM,98%
same,residual activity,MAPK3 (human); compound 10.0 µM,88%
same,residual activity,MAPK3 (human); compound 50.0 µM,101%
same,residual activity,MAPK12 (human); compound 1.0 µM,93%
same,residual activity,MAPK12 (human); compound 10.0 µM,95%
same,residual activity,MAPK12 (human); compound 50.0 µM,89%
same,residual activity,MAP2K6 (human); compound 10.0 µM,95%
same,residual activity,MAP2K6 (human); compound 50.0 µM,81%
same,residual activity,PIM3 (human); compound 10.0 µM,97%
same,residual activity,PIM3 (human); compound 50.0 µM,95%
same,residual activity,PAK4 (human); compound 10.0 µM,86%
same,residual activity,PAK4 (human); compound 50.0 µM,90%
same,residual activity,STK3 (human); compound 1.0 µM,90%
same,residual activity,STK3 (human); compound 10.0 µM,88%
same,residual activity,STK3 (human); compound 50.0 µM,87%
same,residual activity,MAPK14 (human); compound 1.0 µM,82%
same,residual activity,MAPK14 (human); compound 10.0 µM,107%
same,residual activity,IKBKE (human); compound 10.0 µM,101%
same,residual activity,IKBKE (human); compound 50.0 µM,81%
same,residual activity,PLK1 (human); compound 1.0 µM,97%
same,residual activity,PLK1 (human); compound 10.0 µM,95%
same,residual activity,PLK1 (human); compound 50.0 µM,93%
same,residual activity,NTRK1 (human); compound 10.0 µM,91%
same,residual activity,NTRK1 (human); compound 50.0 µM,89%
NS(=O)(=O)OC[C@@H]1C[C@@H](n2ccc3c(N[C@H]4CCc5ccccc54)ncnc32)C[C@@H]1O,residual activity,[1]; compound 1.0 µM,118%
same,residual activity,[1]; compound 10.0 µM,119%
same,residual activity,MKNK2 (human); compound 10.0 µM,108%
same,residual activity,PIM1 (human); compound 10.0 µM,103%
same,residual activity,DAPK1 (human); compound 1.0 µM,110%
same,residual activity,DAPK1 (human); compound 10.0 µM,113%
same,residual activity,PIM2 (human); compound 10.0 µM,101%
same,residual activity,MAPK11 (human); compound 1.0 µM,95%
same,residual activity,MAPK11 (human); compound 10.0 µM,98%
same,residual activity,BRSK2 (human); compound 1.0 µM,92%
same,residual activity,BRSK2 (human); compound 10.0 µM,86%
same,residual activity,DYRK3 (human); compound 10.0 µM,84%
same,residual activity,CLK2 (human); compound 1.0 µM,127%
same,residual activity,IKBKB (human); compound 1.0 µM,100%
same,residual activity,IKBKB (human); compound 10.0 µM,96%
same,residual activity,MAP3K7 TAB1 (human); compound 1.0 µM,107%
same,residual activity,MAP3K7 TAB1 (human); compound 10.0 µM,105%
same,residual activity,RPS6KA3 KD1 KD2 (human); compound 1.0 µM,100%
same,residual activity,RPS6KA3 KD1 KD2 (human); compound 10.0 µM,96%
same,residual activity,[2]; compound 1.0 µM,94%
same,residual activity,[2]; compound 10.0 µM,85%
same,residual activity,MAPKAPK3 (human); compound 1.0 µM,103%
same,residual activity,MAPKAPK3 (human); compound 10.0 µM,101%
same,residual activity,CSNK2A1 (human); compound 1.0 µM,80%
same,residual activity,CSNK2A1 (human); compound 10.0 µM,88%
same,residual activity,TBK1 (human); compound 10.0 µM,88%
same,residual activity,IRAK4 (human); compound 10.0 µM,99%
same,residual activity,DYRK1A (human); compound 1.0 µM,96%
same,residual activity,DYRK1A (human); compound 10.0 µM,103%
same,residual activity,RPS6KA1 KD1 KD2 (human); compound 1.0 µM,96%
same,residual activity,RPS6KA1 KD1 KD2 (human); compound 10.0 µM,95%
same,residual activity,EPHB3 (human); compound 10.0 µM,129%
same,residual activity,ROCK2 (rat); compound 10.0 µM,81%
same,residual activity,MAP3K11 (human); compound 1.0 µM,92%
same,residual activity,MAP3K11 (human); compound 10.0 µM,92%
same,residual activity,MAPK8 (human); compound 1.0 µM,84%
same,residual activity,MAPK8 (human); compound 10.0 µM,97%
same,residual activity,[3]; compound 1.0 µM,95%
same,residual activity,[3]; compound 10.0 µM,112%
same,residual activity,MAPK3 (human); compound 1.0 µM,77%
same,residual activity,MAPK3 (human); compound 10.0 µM,73%
same,residual activity,MAPK12 (human); compound 1.0 µM,101%
same,residual activity,MAPK12 (human); compound 10.0 µM,95%
same,residual activity,MAP2K6 (human); compound 1.0 µM,95%
same,residual activity,MAP2K6 (human); compound 10.0 µM,94%
same,residual activity,PIM3 (human); compound 10.0 µM,78%
same,residual activity,PAK4 (human); compound 1.0 µM,101%
same,residual activity,PAK4 (human); compound 10.0 µM,106%
same,residual activity,STK3 (human); compound 1.0 µM,87%
same,residual activity,STK3 (human); compound 10.0 µM,84%
same,residual activity,MAPK14 (human); compound 10.0 µM,102%
same,residual activity,IKBKE (human); compound 1.0 µM,73%
same,residual activity,IKBKE (human); compound 10.0 µM,78%
same,residual activity,PLK1 (human); compound 1.0 µM,93%
same,residual activity,PLK1 (human); compound 10.0 µM,95%
same,residual activity,NTRK1 (human); compound 10.0 µM,92%
